These compounds were tested on hippocampus neurons (assay: inhibition of reduction in survival rate of neurons, hippocampus (number of surviving cells)). Settings: Rattus norvegicus, Neuron, 72 h; 10^-5 g/ml; control 100%; read-out: Inhibitory effect against reduction in survival rate of neurons (survival rate class).
Type: cell-based, rat
Description: From a rat at the 18th day of pregnancy (having an 18 -day old embryo) the uterus was aseptically removed under etherification, and the fetus was obtained. The whole brain was collected from the fetus. From the brain placed in an L-15 medium were removed under a microscope the hippocampus, striate body, septum, cerebral cortex, and cerebellum. They were respectively minced with a knife. The minced tissue was treated by the addition of trypsin (0.25%) and DNase (0.01%) for 30 minutes at 37° C. to thereby isolate cells. The thus-isolated cells were suspended in Eagle's MEM medium supplemented with 10% fetal calf serum, and inoculated at a concentration of 4×10^4 cells/cm^2 into wells of a 48-well plate which had been coated with poly-L-lysin in advance. Following incubation for 24 hours, the medium was replaced by a serum-free DMEM/F-12 medium containing the drug. After three-days' additional incubation (six days for the striate body), the cells were fixed, stained, and the number of surviving cells in each well was counted. Compounds (2) through (14) were tested analogously to Example 1 using hippocampus cells prepared in a manner similar to Example 1. As structural comparative compounds, the following compounds were used: 4H-pyran-4-one (hereinafter referred as Compound (15) and 3-methoxy-6 -hydroxymethyl-4H-pyran-4-one (hereinafter referred to as Compound (16)).

Which viability at 10 µg/mL does the source give for `O=C1C=C(CO)N=CC1O` (stereo not drawn) [Compound (14), 3-Hydroxy-6-hydroxymethyl-4-pyridone] here?
Its viability at 10 µg/mL is 110 to 130%.

With `CCCCCc1oc(CO)cc(=O)c1O` [Compound (9), 3-Hydroxy-6-hydroxymethyl-2-pentyl-4H-pyran-4-one] as the compound, how does the viability at 10 µg/mL read?
Its viability at 10 µg/mL is 110 to 130%.

With `COc1coc(CO)cc1=O` [Compound (16), 3-methoxy-6-hydroxymethyl-4H-pyran-4-one, reference compound] as the compound, how does the viability at 10 µg/mL read?
The viability at 10 µg/mL was 90 to 110%.

With `O=c1cc(C=Cc2ccccc2)occ1O` [Compound (12), 3-Hydroxy-6-styryl-4H-pyran-4-one] as the compound, how does the viability at 10 µg/mL read?
Its viability at 10 µg/mL is at most 90%.

Which viability at 10 µg/mL does the source give for `Cc1cc(=O)c(O)co1` [Compound (2), 3-Hydroxy-6-methyl-4H-pyran-4-one] here?
The viability at 10 µg/mL was 130 to 150%.

For `O=c1cc(CO)occ1O` [Compound (8), 3-Hydroxy-6-hydroxymethyl-4H-pyran-4-one], which viability at 10 µg/mL is on record?
The viability at 10 µg/mL was 110 to 130%.

Which viability at 10 µg/mL does the source give for `O=c1ccocc1` [Compound (15), 4H-pyran-4-one, reference compound] here?
Its viability at 10 µg/mL is 90 to 110%.

Which viability at 10 µg/mL does the source give for `CC1=CC(=O)C(O)C=N1` (stereo not drawn) [Compound (13), 3-Hydroxy-6-methyl-4-pyridone] here?
Its viability at 10 µg/mL is 130 to 150%.

Same assay, conditions: Rattus norvegicus, Neuron, 72 h; 10^-6 g/ml; control 100%; read-out: Inhibitory effect against reduction in survival rate of neurons (survival rate class)

With `O=C1C=C(CO)N=CC1O` (stereo not drawn) [Compound (14), 3-Hydroxy-6-hydroxymethyl-4-pyridone] as the compound, how does the viability at 1 µg/mL read?
The viability at 1 µg/mL was 90 to 110%.

With `CCCCCc1oc(CO)cc(=O)c1O` [Compound (9), 3-Hydroxy-6-hydroxymethyl-2-pentyl-4H-pyran-4-one] as the compound, how does the viability at 1 µg/mL read?
Its viability at 1 µg/mL is 90 to 110%.

How did the viability at 1 µg/mL turn out when `COc1coc(CO)cc1=O` [Compound (16), 3-methoxy-6-hydroxymethyl-4H-pyran-4-one, reference compound] was run?
Its viability at 1 µg/mL is 90 to 110%.

Which viability at 1 µg/mL does the source give for `O=c1cc(C=Cc2ccccc2)occ1O` [Compound (12), 3-Hydroxy-6-styryl-4H-pyran-4-one] here?
Its viability at 1 µg/mL is 110 to 130%.

Which viability at 1 µg/mL does the source give for `Cc1cc(=O)c(O)co1` [Compound (2), 3-Hydroxy-6-methyl-4H-pyran-4-one] here?
The viability at 1 µg/mL was 110 to 130%.

For `O=c1cc(CO)occ1O` [Compound (8), 3-Hydroxy-6-hydroxymethyl-4H-pyran-4-one], which viability at 1 µg/mL is on record?
The viability at 1 µg/mL was 110 to 130%.

How did the viability at 1 µg/mL turn out when `O=c1ccocc1` [Compound (15), 4H-pyran-4-one, reference compound] was run?
The viability at 1 µg/mL was 90 to 110%.

Which viability at 1 µg/mL does the source give for `CC1=CC(=O)C(O)C=N1` (stereo not drawn) [Compound (13), 3-Hydroxy-6-methyl-4-pyridone] here?
Its viability at 1 µg/mL is 110 to 130%.

Same assay, conditions: Rattus norvegicus, Neuron, 72 h; 10^-7 g/ml; control 100%; read-out: Inhibitory effect against reduction in survival rate of neurons (survival rate class)

`O=C1C=C(CO)N=CC1O` (stereo not drawn) [Compound (14), 3-Hydroxy-6-hydroxymethyl-4-pyridone] was tested. Which viability at 0.1 µg/mL did it give?
Its viability at 0.1 µg/mL is 90 to 110%.

How did the viability at 0.1 µg/mL turn out when `CCCCCc1oc(CO)cc(=O)c1O` [Compound (9), 3-Hydroxy-6-hydroxymethyl-2-pentyl-4H-pyran-4-one] was run?
The viability at 0.1 µg/mL was 90 to 110%.

For `COc1coc(CO)cc1=O` [Compound (16), 3-methoxy-6-hydroxymethyl-4H-pyran-4-one, reference compound], which viability at 0.1 µg/mL is on record?
The viability at 0.1 µg/mL was 90 to 110%.

With `O=c1cc(C=Cc2ccccc2)occ1O` [Compound (12), 3-Hydroxy-6-styryl-4H-pyran-4-one] as the compound, how does the viability at 0.1 µg/mL read?
Its viability at 0.1 µg/mL is 110 to 130%.

`Cc1cc(=O)c(O)co1` [Compound (2), 3-Hydroxy-6-methyl-4H-pyran-4-one] was tested. Which viability at 0.1 µg/mL did it give?
The viability at 0.1 µg/mL was 90 to 110%.

Which viability at 0.1 µg/mL does the source give for `O=c1cc(CO)occ1O` [Compound (8), 3-Hydroxy-6-hydroxymethyl-4H-pyran-4-one] here?
The viability at 0.1 µg/mL was 90 to 110%.

With `O=c1ccocc1` [Compound (15), 4H-pyran-4-one, reference compound] as the compound, how does the viability at 0.1 µg/mL read?
The viability at 0.1 µg/mL was 90 to 110%.

`CC1=CC(=O)C(O)C=N1` (stereo not drawn) [Compound (13), 3-Hydroxy-6-methyl-4-pyridone] was tested. Which viability at 0.1 µg/mL did it give?
The viability at 0.1 µg/mL was 90 to 110%.

Same assay, conditions: Rattus norvegicus, Neuron, 72 h; 10^-8 g/ml; control 100%; read-out: Inhibitory effect against reduction in survival rate of neurons (survival rate class)

With `O=C1C=C(CO)N=CC1O` (stereo not drawn) [Compound (14), 3-Hydroxy-6-hydroxymethyl-4-pyridone] as the compound, how does the viability at 0.01 µg/mL read?
Its viability at 0.01 µg/mL is 90 to 110%.

With `CCCCCc1oc(CO)cc(=O)c1O` [Compound (9), 3-Hydroxy-6-hydroxymethyl-2-pentyl-4H-pyran-4-one] as the compound, how does the viability at 0.01 µg/mL read?
The viability at 0.01 µg/mL was 90 to 110%.

For `COc1coc(CO)cc1=O` [Compound (16), 3-methoxy-6-hydroxymethyl-4H-pyran-4-one, reference compound], which viability at 0.01 µg/mL is on record?
Its viability at 0.01 µg/mL is 90 to 110%.

Which viability at 0.01 µg/mL does the source give for `O=c1cc(C=Cc2ccccc2)occ1O` [Compound (12), 3-Hydroxy-6-styryl-4H-pyran-4-one] here?
Its viability at 0.01 µg/mL is 90 to 110%.

With `Cc1cc(=O)c(O)co1` [Compound (2), 3-Hydroxy-6-methyl-4H-pyran-4-one] as the compound, how does the viability at 0.01 µg/mL read?
Its viability at 0.01 µg/mL is 90 to 110%.

For `O=c1cc(CO)occ1O` [Compound (8), 3-Hydroxy-6-hydroxymethyl-4H-pyran-4-one], which viability at 0.01 µg/mL is on record?
The viability at 0.01 µg/mL was 90 to 110%.

For `O=c1ccocc1` [Compound (15), 4H-pyran-4-one, reference compound], which viability at 0.01 µg/mL is on record?
Its viability at 0.01 µg/mL is 90 to 110%.

Which viability at 0.01 µg/mL does the source give for `CC1=CC(=O)C(O)C=N1` (stereo not drawn) [Compound (13), 3-Hydroxy-6-methyl-4-pyridone] here?
Its viability at 0.01 µg/mL is 90 to 110%.

Same assay, conditions: Rattus norvegicus, Neuron, 72 h; 10^-9 g/ml; control 100%; read-out: Inhibitory effect against reduction in survival rate of neurons (survival rate class)

`O=C1C=C(CO)N=CC1O` (stereo not drawn) [Compound (14), 3-Hydroxy-6-hydroxymethyl-4-pyridone] was tested. Which viability at 0.001 µg/mL did it give?
The viability at 0.001 µg/mL was 90 to 110%.

`CCCCCc1oc(CO)cc(=O)c1O` [Compound (9), 3-Hydroxy-6-hydroxymethyl-2-pentyl-4H-pyran-4-one] was tested. Which viability at 0.001 µg/mL did it give?
Its viability at 0.001 µg/mL is 90 to 110%.

With `COc1coc(CO)cc1=O` [Compound (16), 3-methoxy-6-hydroxymethyl-4H-pyran-4-one, reference compound] as the compound, how does the viability at 0.001 µg/mL read?
The viability at 0.001 µg/mL was 90 to 110%.

Which viability at 0.001 µg/mL does the source give for `O=c1cc(C=Cc2ccccc2)occ1O` [Compound (12), 3-Hydroxy-6-styryl-4H-pyran-4-one] here?
The viability at 0.001 µg/mL was 90 to 110%.

`Cc1cc(=O)c(O)co1` [Compound (2), 3-Hydroxy-6-methyl-4H-pyran-4-one] was tested. Which viability at 0.001 µg/mL did it give?
The viability at 0.001 µg/mL was 90 to 110%.

How did the viability at 0.001 µg/mL turn out when `O=c1cc(CO)occ1O` [Compound (8), 3-Hydroxy-6-hydroxymethyl-4H-pyran-4-one] was run?
The viability at 0.001 µg/mL was 90 to 110%.

How did the viability at 0.001 µg/mL turn out when `O=c1ccocc1` [Compound (15), 4H-pyran-4-one, reference compound] was run?
Its viability at 0.001 µg/mL is 90 to 110%.

How did the viability at 0.001 µg/mL turn out when `CC1=CC(=O)C(O)C=N1` (stereo not drawn) [Compound (13), 3-Hydroxy-6-methyl-4-pyridone] was run?
Its viability at 0.001 µg/mL is 90 to 110%.

Same assay, conditions: hippocampus cells, Example 2

How did the “inhibitory effect against reduction in survival rate of neurons (in words)” value turn out when `COc1coc(CO)cc1=O` [Compound (16), 3-methoxy-6-hydroxymethyl-4H-pyran-4-one, reference compound] was run?
Its value is “no inhibitory effect”.

`O=c1ccocc1` [Compound (15), 4H-pyran-4-one, reference compound] was tested. Which “inhibitory effect against reduction in survival rate of neurons (in words)” value did it give?
Its value is “no inhibitory effect”.

Reference: patent US5962480A, “Drug for ameliorating brain diseases” (Wakunaga Pharmaceutical Co., Ltd., priority 1995, dated 1999)
